# Data reported in US7166472B2, “Method for the identification of agents that inhibit or promote cataracts and uses thereof” (The General Hospital Corporation, priority 2000, dated 2007).
# Assays:
# [1] = Hydrogen peroxide assay (DCF fluorometric); assay type: biochemical
# Procedure: Hydrogen Peroxide Assay—The fluorometric assay for hydrogen peroxide is based on the dichlorofluorescein diacetate (DCF) method (Molecular Probes, Eugene, Oreg.). The DCF solution (5 mM) in 100% ethanol was deacetylated in the presence of 0.01 M NaOH for 30 minutes and neutralized. Horseradish peroxidase (200 U/ml) was then added and the DCF concentration adjusted to 200 μM in PBS. The reaction solutions were carried out in PBS, pH 7.4, in a 96-well format plate (total volume=300 μL/well) and contained a test compound (KYN, 3-HK, 3-HAA, ANA, or ASC, each at 10 μM), deacetylated DCF (20 μM), and Cu(II)-glycine (1 μM) as indicated, incubated at 37° C. for 60 minutes. […] Abolition of the reading by co-incubation with catalase (1000 U/ml) was used for establishing H2O2 specificity. The fluorescent readings were recorded by a Packard FLURORCOUNT™ fluorescent plate reader with a 485 nm excitation filter and 530 nm emission filter. Concentrations were determined by comparison to a standard curve using reagent grade hydrogen peroxide in CHELEX™ chelating ion exchanae resin-treated PBS buffer, pH 7.4.
# Reactions were conducted in the absence of added Cu(II), in the presence of added glycine-complexed Cu(II) (1 μM), in the presence of added glycine-complexed Cu(II) (1 μM) and catalase (1000 U/ml), or with added glycine-complexed Cu(II) (1 μM) and the copper chelator triethylenetetramine (TETA, 200 μM).
# [2] = target: T1, recombinant human αB-crystallin (Homo sapiens, UniProt P02511); test: Recombinant human αB-crystallin cross-linking (SDS-PAGE, silver stain); assay type: biochemical; conditions: data not shown
# T1 construct: gift of Dr. J. Liang, Brigham and Women's Hospital
# T1 sequence (P02511 1-175): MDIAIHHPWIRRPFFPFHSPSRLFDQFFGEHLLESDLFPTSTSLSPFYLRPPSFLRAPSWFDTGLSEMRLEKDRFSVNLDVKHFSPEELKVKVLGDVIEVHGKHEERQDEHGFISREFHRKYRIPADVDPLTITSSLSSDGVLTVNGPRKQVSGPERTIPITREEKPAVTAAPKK
# Procedure: Various solutions containing 3-HK (10 μM) or other kynurenine pathway metabolites (10 μM), Cu(II)-glycine (10 μM), Fe(III)-citrate (10 μM), and triethylenetetramine (TETA, 200 μM), were added in combinations as indicated. […] After incubation, aliquots of the total lens protein solutions were mixed with sample buffer containing 4% SDS and 5% β-mercaptoethanol, heated to 95° C. for 5 minutes, and loaded at 1 μg/lane on a 10–20% Tricine gel (Novex, San Diego, Calif.). […] For the experiments with recombinant αB-crystallin, aliquots of the protein solutions were mixed with sample running buffer containing NuPAGE sample buffer (Novex, San Diego, Calif.) and 10% β-mercaptoethanol, heated to 95° C. for 5 minutes, spun briefly, then loaded on a NuPAGE 4–12% Bis-Tris polyacrylamide gel at 375 ng/lane and electrophoresed with denaturing 3-(N-morpholino)propanesulfonic acid (MOPS)-SDS running buffer according to the manufacturer's recommendations.
# To exclude the effects of other lens proteins on the observed findings in FIG. 5, these interactions with purified recombinant human αB-crystallin were examined.
# [3] = Metal reduction assay, Cu(II) to Cu(I) (BC/BCA indicator); assay type: biochemical; conditions: chelator 250 μM
# Procedure: Metal Reduction Assays—Assays were performed using a 96-well microtiter plate (Costar, Mass.). Test compounds from the kynurenine pathway (10 μM) or, as a positive control, ascorbic acid (ASC, 10 μM) were co-incubated with either Fe(III)-citrate (25 μM) and the Fe(II) indicator bathophenanthroline disulfonic acid (BP, 250 μM), or Cu(II)-glycine (25 μM) and the Cu(I) indicator bathocuproine disulfonic acid (BC) or bicinchoninic acid (BCA, 250 μM). Incubations were conducted in PBS, pH 7.4, at 37° C. in the dark for one hour. Absorbencies were then measured using a plate reader (SPECTRAmax Plus, Molecular Devices, CA) at the appropriate wavelengths: Fe(II)-BP complex at 535 nm (the known molar absorption coefficient, M535,=22140 M^−1 cm^−1), Cu(I)-BC complex at 483 nm, M483=12250 M^−1cm^−1), or Cu(I)-BCA complex at 562 nm, M562=7700 M^−1cm^−1). In control samples, absorbance from the metal ion and indicator in the absence of test compound and the absorbance of test compound in the presence of metal ions, but in the absence of indicator, were determined. The absorbencies from these controls were deducted from those obtained in the presence of the test compound, metal and indicator to yield the net absorbance (ΔA). Fe(II) or Cu(I) concentrations (μM) were calculated according to the formula: C(μM)=ΔA*10^6/Mλ.
# The compounds comprising the kynurenine pathway (FIG. 1) were assayed for their ability to reduce […] and Cu(II) (FIG. 2A). […] Values represent the mean±SD for three independent measurements.
# [4] = Superoxide assay (dihydroethidium fluorometric); assay type: biochemical
# Procedure: Superoxide Assay—The fluorometric assay for superoxide is based upon the dihydroethidium (DHE, HYDROETHDNE™) method (Molecular Probes, Eugene, Oreg.) and used according to the manufacturer's instructions. DHE (1 mM) was freshly prepared in 100% argon-sparged DMSO. The reaction solutions were carried out in PBS, pH 7.4, under ambient gas conditions, in 96-well format plates and contained a test compound (KYN, 3-HK, 3-HAA, and ANA, each at 10 μM), DHE (100 μM), +/− Cu(II)-glycine (1 μM) and incubated at 37EC for 60 minutes. […] Abolition of the reading by co-incubation with superoxide dismutase (1000 U/ml) was used for establishing superoxide specificity. The fluorescent readings were recorded by a Packard FLUOROCOUNT™ fluorescent plate reader with a 510 nm excitation filter and 590 nm emission filter. Potassium superoxide dissolved in degassed DMSO was used as a positive control.
# [5] = Cyclic voltammetry of kynurenine metabolites with Cu(II); assay type: physicochemical; conditions: metabolite 100 μM, cupric chloride 25 μM, PBS pH 7.4
# Procedure: Cyclic Voltammetry—Cyclic voltammetry was performed at room temperature (22±2° C.) on ambient solutions using an EG&G PAR potentiostat, Model 273. The potentiostat was operated in Ramp Mode, generating a potential staircase waveform with a 0.25 mV step height. The potential window of +0.15 to −0.4V, in which Cu(I) is electroactive, but the metabolites are not, was scanned in both directions at a rate of 100 mV/sec. The current response was passed through a 5.3 Hz low pass filter. A minimum of three cycles were collected for each scan, ensuring the stability of the electrochemical response. The electrochemical cell consisted of an indium/tin oxide working electrode (Delta Technologies) with an active area of 0.32 cm^2, a platinum wire auxiliary electrode, and a Ag/AgCl (1 M KCl) reference electrode (Microelectrodes Inc.). Both the auxiliary and reference electrodes were positioned in the cell in close proximity to the working electrode. The working electrodes were pretreated with successive 10 minute sonications in Alconox (˜8 g/L), 95% ethanol, Milli-Q purified H2O (2×), and PBS (pH 7.4), followed by an overnight soak in PBS (pH 7.4). The ITO electrodes were subsequently “activated” immediately prior to use by successive cycling in PBS for three cycles in each of the following potential windows: +0.15 ? −0.4 V, +0.4 ? −0.4 V, and +1.0 ? −0.4 V. Cupric chloride (25 μM; Allied Chemical) was used as the Cu(II) source. Background voltammograms were obtained on each new electrode before testing the kynurenine pathway metabolites. PBS solutions of KYN, 3-HK, ANA, and 3-HAA (each at 100 μM) were separately scanned with and without added Cu(II) (25 μM). Each experiment also included a scan of Cu(II) (25 μM) in PBS without added test compound. All solutions were tested within minutes of being prepared. Each test was repeated to ensure the reproducibility of the results.
# The voltammograms in FIGS. 3A–3D compare 3-HK and 3-HAA to their corresponding non-phenolic analogs, kynurenine (KYN) and anthranilic acid (ANA), in aqueous solutions of Cu(II) at pH 7.4. […] At potentials above +0.15 V, the metabolites undergo direct irreversible oxidation, a reaction that is not considered further here. Cyclic voltammetry of Cu(II) in PBS yielded a current response at ≈−100 mV due to reduction of the metal ion (scan “b” in each panel).
# [6] = Metal reduction capacity of tanned calf lens α-crystallin, Cu(II); assay type: biochemical; conditions: α-crystallin preparation 100 μg/ml, Cu(II)-glycine 25 μM, one hour 37° C.
# Procedure: Studies of Tanned Calf Lens Crystalin in Assay of Crystallin Protein for Metal Reduction Capacity—α-Crystallin (10 mg/ml) from calf lens was modified by reaction with 3-HK (100 μM), 3-HAA (100 μM), or ASC (100 μM) in PBS, ph 7.4, for 12 hours at 4° C. in the dark. Control samples were incubated with ascorbic acid (100 μM) or without added reductant. The tanning incubation solutions also contained triethylenetetramine (TETA, 200 μM) to prevent cross-linking of the protein. After incubation, free reductant was removed from the tanned α-crystallin preparations by exhaustive dialysis at 4EC in the dark utilizing PBS, pH 7.4, containing CHELEX™ 100 chelating ion exchange resin (BioRad, Hercules, Calif.). The various modified α-crystallin preparations (100 μg/ml) were co-incubated with either Cu(II)-glycine glycine (25 μM) or Fe(III)-citrate (25 μM) for one hour at 37° C. and assayed for metal reduction capacity using the BC and BP spectrophotometric assay as detailed above. Incubated and dialyzed α-crystallin (100 μg/ml) and untreated α-crystallin (100 μg/ml) preparations were used for procedural control.
# 3-HK: α-crystallin reduced nearly 100% of the available Cu(II) and approximately 20% of the available Fe(III). 3-HAA: α-crystallin reduced approximately 65% of the available Cu(II).
molecule,measurement,setting,value
catalase [reference compound],effect on hydrogen peroxide generation by 3-HK or 3-HAA,"[1]; Cu(II) 1 μM, catalase 1000 U/ml or TETA 200 μM",abolished
same,inhibition of αB-crystallin cross-linking by 3-HK or 3-HAA and Cu(II),[2],neither catalase nor superoxide dismutase were capable of inhibiting
"O=C(O)CN(CCN(CC(=O)O)CC(=O)O)CCN(CC(=O)O)CC(=O)O [DTPA, diethylenetriaminepentaacetic acid, reference compound]","effect of chelator on metal reduction by 3-HK, 3-HAA and XA",[3],abolished
OC[C@@H](O)[C@@H](O)[C@H](O)[C@H](O)CO [mannitol],inhibition of αB-crystallin cross-linking by 3-HK or 3-HAA and Cu(II),[2],did not inhibit
superoxide dismutase [reference compound],effect on superoxide production by 3-HAA,[4]; superoxide dismutase 1000 U/ml,removed
same,inhibition of αB-crystallin cross-linking by 3-HK or 3-HAA and Cu(II),[2],neither catalase nor superoxide dismutase were capable of inhibiting
"C[S+](C)[O-] [DMSO, dimethyl sulfoxide]",inhibition of αB-crystallin cross-linking by 3-HK or 3-HAA and Cu(II),[2],did not inhibit
O=C(O)c1ccccc1O [salicylate],inhibition of αB-crystallin cross-linking by 3-HK or 3-HAA and Cu(II),[2],did not inhibit
"Nc1ccccc1C(=O)O [ANA, anthranilic acid]",effect of Cu(II) on superoxide generation,"[4]; test compound 10 μM, Cu(II)-glycine 1 μM",did not promote
same,superoxide production,"[4]; test compound 10 μM, ambient oxygen, dark, 60 minutes",negligible
same,hydrogen peroxide generated,"[1]; ambient gas conditions, CHELEX-treated PBS, FIG. 4C",approx. 0.3 μM
same,Cu(II) reduction wave in presence of metabolite,[5],largely unaffected
"3-HAA: α-crystallin: calf lens α-crystallin modified (tanned) by reaction with 3-HAA, free metabolite removed by dialysis (protein, UniProt P02470 1-173; P02510 1-175, looked up, modified with 3-hydroxyanthranilic acid, calf lens α-crystallin modified (tanned) by reaction with 3-HAA, free metabolite removed by dialysis) Alpha-crystallin A chain: MDIAIQHPWFKRTLGPFYPSRLFDQFFGEGLFEYDLLPFLSSTISPYYRQSLFRTVLDSGISEVRSDRDKFVIFLDVKHFSPEDLTVKVQEDFVEIHGKHNERQDDHGYISREFHRRYRLPSNVDQSALSCSLSADGMLTFSGPKIPSGVDAGHSERAIPVSREEKPSSAPSS Alpha-crystallin B chain: MDIAIHHPWIRRPFFPFHSPSRLFDQFFGEHLLESDLFPASTSLSPFYLRPPSFLRAPSWIDTGLSEMRLEKDRFSVNLDVKHFSPEELKVKVLGDVIEVHGKHEERQDEHGFISREFHRKYRIPADVDPLAITSSLSSDGVLTVNGPRKQASGPERTIPITREEKPAVTAAPKK",reduction of available Cu(II),[6],approximately 65%
